Source: patent US20100105680A1, “SUBSTITUTED DIMETHYLCYCLOBUTYL COMPOUNDS, THEIR PREPARATION AND USE IN MEDICAMENTS” (priority 2006, published 2010)

Biological target: T1, sigma-1 receptor (Cavia porcellus, UniProt Q60492)
T1 construct: guinea pig brains were homogenized; from tissue; host or cells: guinea pig brain membranes
Assay: Sigma-1 receptor binding ([3H]-(+)-pentazocine, brain membranes)
Conditions: [3H]-(+)-pentazocine 0.5 nM, guinea pig brain membranes; for inhibition at 0.01 µM / Percent Inhibition Percent Concentration (μM) 0.0100 SIGMA-1 receptor: compound concentration 0.0100 μM; for inhibition at 0.01 µM: read-out: Percent Inhibition Percent Concentration (μM) 0.0100 SIGMA-1 receptor; for inhibition at 0.1 µM / Percent Inhibition Percent Concentration (μM) 0.1000 SIGMA-1 receptor: compound concentration 0.1000 μM; for inhibition at 0.1 µM: read-out: Percent Inhibition Percent Concentration (μM) 0.1000 SIGMA-1 receptor
Protocol: Brain membrane preparation and binding assays for the sigma-1 receptor were performed as described (DeHaven-Hudkins et al., Characterization of the binding of [^3H]-(+)-pentazocine to recognition sites in guinea pig brain, Eur. J. Pharmacol. 227, 371-378) with some modifications.
In brief, guinea pig brains were homogenized in 10 vols. (w/v) of Tris-HCl 50 mM, 0.32 M sucrose, pH 7.4, with a Kinematica Polytron PT 3000 at 15000 r.p.m. for 30 s. The homogenate was centrifuged at 1000 g for 10 min at 4° C. and the supernatants collected and centrifuged again at 48000 g for 15 min at 4° C. The pellet was resuspended in 10 volumes of Tris-HCl buffer (50 mM, pH 7.4), incubated at 37° C. for 30 min, and centrifuged at 48000 g for 20 min at 4° C. Following this, the pellet was resuspended in fresh Tris-HCl buffer (50 mM, pH 7.4) and stored on ice until use.
Each assay tube contained 10 μL of [^3H]-(+)-pentazocine (final concentration of 0.5 nM), 900 μL of the tissue suspension to a final assay volume of 1 mL and a final tissue concentration of approximately 30 mg tissue net weight/mL. Non-specific binding was defined by addition of a final concentration of […] haloperidol. All tubes were incubated at 37° C. for 150 min before termination of the reaction by rapid filtration over Schleicher & Schuell GF 3362 glass fibre filters [previously soaked in a solution of 0.5% polyethylenimine for at least 1 h]. Filters were then washed with four times with 4 mL of cold Tris-HCl buffer (50 mM, pH 7.4). Following addition of scintillation cocktail, the samples were allowed to equilibrate overnight. The amount of bound radioactivity was determined by liquid scintillation spectrometry using a Wallac Winspectral 1414 liquid scintillation counter. Protein concentrations were determined by the method of Lowry et al. (Protein measurement with the Folin phenol reagent, J. Biol. Chem, 193, 265).
The binding of the compounds of the present invention to sigma-1 receptors was tested as described above.

T1 sequence (Q60492 whole entry): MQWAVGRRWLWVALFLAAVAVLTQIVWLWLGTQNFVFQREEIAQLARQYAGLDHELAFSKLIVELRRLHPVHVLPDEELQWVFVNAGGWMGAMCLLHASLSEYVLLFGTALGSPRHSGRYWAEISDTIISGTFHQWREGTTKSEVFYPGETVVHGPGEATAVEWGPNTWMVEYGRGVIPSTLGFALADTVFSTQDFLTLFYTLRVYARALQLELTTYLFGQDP

| Ki [nM] | inhibition at 0.01 µM [%] | inhibition at 0.1 µM [%] | SMILES | Percent Inhibition Percent Concentration (μM) 0.0100 SIGMA-1 receptor [%] | Percent Inhibition Percent Concentration (μM) 0.1000 SIGMA-1 receptor [%] |
| --- | --- | --- | --- | --- | --- |
| 6.1 | 62.8 | 79.7 | CC1(C)[C@H](CCOCc2ccccc2)C[C@@H]1CN1CCOCC1 [compound 1] | – | – |
| 1.5 | 66.5 | 95.9 | CC1(C)[C@H](CCOCc2ccccc2)C[C@@H]1CN1CCCCC1 [compound 2] | – | – |
| – | 30.2 | 97.7 | CC1(C)[C@H](CCOCc2ccccc2)C[C@@H]1CN1CCC(c2ccccc2)CC1 [compound 3] | – | – |
| – | 42.5 | 92.4 | CN1CCN(C[C@H]2C[C@@H](CCOCc3ccccc3)C2(C)C)CC1 [compound 5] | – | – |
| 1.3 | 91 | 98.4 | CC1(C)[C@@H](COCc2ccccc2)C[C@H]1CN1CCOCC1 [compound 6] | – | – |
| 0.79 | 94.5 | 101 | CC1(C)[C@@H](COCc2ccccc2)C[C@H]1CN1CCCCC1 [compound 7] | – | – |
| 10.9 | 48.3 | 101 | CC1(C)[C@@H](COCc2ccccc2)C[C@H]1CN1CCC(c2ccccc2)CC1 [compound 8] | – | – |
| 0.95 | 86.7 | 99.5 | CN1CCN(C[C@@H]2C[C@H](COCc3ccccc3)C2(C)C)CC1 [compound 10] | – | – |
| – | -8.3 | 44.4 | CC(O)[C@@H]1C[C@H](CCN2CCOCC2)C1(C)C (stereo partly drawn) [compound 11] | – | – |
| – | 5.5 | 44.1 | CC(O)[C@@H]1C[C@H](CCN2CCCCC2)C1(C)C (stereo partly drawn) [compound 12] | – | – |
| 1.2 | 77.8 | 95.2 | CC(O)(c1ccccc1)[C@@H]1C[C@H](CCN2CCOCC2)C1(C)C (stereo partly drawn) [compound 13] | – | – |
| 1.9 | 75.6 | 97.5 | CC(O)(c1ccccc1)[C@@H]1C[C@H](CCN2CCCCC2)C1(C)C (stereo partly drawn) [compound 14] | – | – |
| 4.2 | 93.6 | 95.4 | CC1(C)[C@@H](CCOc2ccccc2)C[C@H]1CN1CCOCC1 [compound 15] | – | – |
| 2.2 | 97.5 | 96.4 | CC1(C)[C@@H](CCOc2ccccc2)C[C@H]1CN1CCCCC1 [compound 16] | – | – |
| 41.8 | 45.2 | 61.5 | CC1(C)[C@@H](CCO)C[C@H]1CN1CCCCC1 [compound 17] | – | – |
| – | -21.4 | 44.8 | CC1(C)[C@H](CCO)C[C@@H]1CN1CCCCC1 [compound 18] | – | – |
| – | 17.1 | 42.3 | CC1(C)[C@@H](CCO)C[C@H]1CN1CCOCC1 [compound 19] | – | – |
| – | 31.5 | 63.1 | CC1(C)[C@H](CCO)C[C@@H]1CN1CCOCC1 [compound 20] | – | – |
| – | 25.7 | 77.1 | CC1CCN(C[C@@H]2C[C@H](CCO)C2(C)C)CC1 [compound 21] | – | – |
| 1.4 | 91.9 | 96.8 | CC1(C)[C@@H](CCO)C[C@H]1CN1CCC(c2ccccc2)CC1 [compound 22] | – | – |
| – | 27.6 | 70.6 | C[C@@H]1CN(C[C@@H]2C[C@H](CCO)C2(C)C)C[C@H](C)O1 [compound 23] | – | – |
| 3.3 | 69.7 | 92 | CN(Cc1ccccc1)CC1CC(CCO)C1(C)C (stereo not drawn) [compound 24] | – | – |
| 1.2 | 83 | 98.3 | CC1(C)[C@H](CO)C[C@@H]1CCN1CCC(Cc2ccccc2)CC1 [compound 25] | – | – |

| Ki [nM] | inhibition at 0.01 µM [%] | inhibition at 0.1 µM [%] | SMILES | Percent Inhibition Percent Concentration (μM) 0.0100 SIGMA-1 receptor [%] | Percent Inhibition Percent Concentration (μM) 0.1000 SIGMA-1 receptor [%] |
| --- | --- | --- | --- | --- | --- |
| – | 23.9 | 50 | COC(=O)C[C@H]1C[C@@H](CN2CCCCC2)C1(C)C [compound 26] | – | – |
| 1.1 | 96.5 | 104 | CC1(C)[C@@H](CCOCc2ccccc2)C[C@H]1CN1CCCCC1 [compound 27] | – | – |
| 5 | 93.5 | 100 | CC1CCN(C[C@@H]2C[C@H](CCOCc3ccccc3)C2(C)C)CC1 [compound 28] | – | – |
| 16.6 | 76.9 | 95.6 | CC1(C)[C@@H](CCOCc2ccccc2)C[C@H]1CN1CCC(c2ccccc2)CC1 [compound 29] | – | – |
| 1 | 74 | 91.8 | CC1(C)[C@@H](CCOCc2ccccc2)C[C@H]1CN1CCSCC1 [compound 30] | – | – |
| 1.7 | 89.9 | 101 | CC1(C)[C@@H](CCOCc2ccccc2)C[C@H]1CN1CCOCC1 [compound 31] | – | – |
| 3.6 | 94.6 | 99.1 | C[C@@H]1CN(C[C@@H]2C[C@H](CCOCc3ccccc3)C2(C)C)C[C@H](C)O1 [compound 32] | – | – |
| 0.6 ± 0.2 | 85.3 | 89.8 | CC1(C)[C@@H](CCOCc2ccccc2)C[C@H]1CN1CCCC1 [compound 33] | – | – |
| 3.6 | 92.3 | 96.2 | CN1CCN(C[C@@H]2C[C@H](CCOCc3ccccc3)C2(C)C)CC1 [compound 34] | – | – |
| 1.2 | 88.6 | 98.5 | CC1(C)[C@H](COCc2ccccc2)C[C@@H]1CCN1CCCCC1 [compound 38] | – | – |
| 8.4 | 94.1 | 95.8 | CC1(C)[C@H](COCc2ccccc2)C[C@@H]1CCN1CCOCC1 [compound 39] | – | – |
| – | 16.3 | 60.1 | CC1(C)[C@@H](CCN2CCCC(c3ccccc3)C2)C[C@H]1CN1CCOCC1 (stereo partly drawn) [compound 40] | – | – |
| – | 19.7 | 88 | CC1(C)[C@@H](CCN2CCC(Cc3ccccc3)CC2)C[C@H]1CN1CCOCC1 [compound 42] | – | – |
| – | 41.7 | 82.8 | CC1(C)[C@@H](CCn2cccn2)C[C@H]1CN1CCOCC1 [compound 44] | – | – |
| – | 10.3 | 28.4 | CC1(C)[C@@H](CCn2cncn2)C[C@H]1CN1CCOCC1 [compound 45] | – | – |
| 13.5 | 50.2 | 83 | CC1(C)[C@@H](CCn2ccc3c2CCCC3=O)C[C@H]1CN1CCOCC1 [compound 46] | – | – |
| – | 36.8 | 92 | CC1(C)[C@@H](CCN2CCc3ccccc3C2)C[C@H]1CN1CCOCC1 [compound 47] | – | – |
| – | 34.3 | 72.4 | CC1(C)[C@@H](CCn2ccnc2)C[C@H]1CN1CCCCC1 [compound 48] | – | – |
| 4.9 | 45.7 | 92 | CC1(C)[C@@H](CCn2cccn2)C[C@H]1CN1CCCCC1 [compound 49] | – | – |
| – | 2 | 20.9 | CC1(C)[C@@H](CCn2cncn2)C[C@H]1CN1CCCCC1 [compound 50] | – | – |
| – | 36.1 | 81.9 | CC1(C)[C@@H](CCN2CCC(c3ccccc3)CC2)C[C@H]1CN1CCCCC1 [compound 51] | – | – |
| – | -0.6 | 52.6 | CC1(C)[C@@H](CCN2CCC(Cc3ccccc3)CC2)C[C@H]1CN1CCCCC1 [compound 52] | – | – |
| – | -6.6 | 73.6 | CC1(C)[C@@H](CCn2ccc3c2CCCC3=O)C[C@H]1CN1CCCCC1 [compound 53] | – | – |

| SMILES | Ki [nM] | inhibition at 0.01 µM [%] | inhibition at 0.1 µM [%] | Percent Inhibition Percent Concentration (μM) 0.0100 SIGMA-1 receptor [%] | Percent Inhibition Percent Concentration (μM) 0.1000 SIGMA-1 receptor [%] |
| --- | --- | --- | --- | --- | --- |
| CC1(C)[C@H](CCOCc2ccccc2)C[C@@H]1CN1CCN(c2ccccc2)CC1 [compound 4] | – | 24.1 | 82.2 | – | – |
| CC1(C)[C@@H](COCc2ccccc2)C[C@H]1CN1CCN(c2ccccc2)CC1 [compound 9] | 14.6 | 60 | 94.7 | – | – |
| CN1CCN(C[C@@H]2C[C@H](CCOCc3ccccc3)C2(C)C)CC1.O=C(O)C(=O)O [compound 35] | 5.3 | – | – | 76.7 | 95.9 |
| CC1(C)[C@@H](CCOCc2ccccc2)C[C@H]1CN1CCN(c2ccccc2)CC1 [compound 36] | 47 | 65.8 | 88.3 | – | – |
| CC1(C)[C@@H](CCOCc2ccccc2)C[C@H]1CN1CCN(c2ccccc2)CC1.O=C(O)C(=O)O [compound 37] | 33.5 | – | – | 79.7 | 98.8 |
